In ChEMBL document CHEMBL1201862, “PubChem BioAssay data set” (2004):
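Five compound concentrations were applied to cells in 96-well plates for 48 hours; endpoints were derived by simple linear interpolation of the resulting dose-response curve. Here, GI50 denotes the concentration required for 50% inhibition of growth.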 Active and inactive are the calls of the source. No stated cut-off is given here; in the data, active = GI50 up to about 1.1 µM and inactive = higher.

What was measured:
Assay in all cases: growth of human tumour cells (NCI), 48 h
EKVX = tested on: EKVX
SW-620 = tested on: SW-620
HCT-116 = tested on: HCT-116
SK-MEL-28 = tested on: SK-MEL-28
SNB-75 = tested on: SNB-75
RXF 393 = tested on: RXF 393
SK-OV-3 = tested on: SK-OV-3
SK-MEL-2 = tested on: SK-MEL-2
K562 = tested on: K562
PC-3 = tested on: PC-3
SF-295 = tested on: SF-295
MDA-MB-435 = tested on: MDA-MB-435
SR = tested on: SR
SN12C = tested on: SN12C
SNB-19 = tested on: SNB-19
NCI-H23 = tested on: NCI-H23
MDA-MB-231 = tested on: MDA-MB-231
IGROV-1 = tested on: IGROV-1
T47D = tested on: T47D
COLO 205 = tested on: COLO 205
HOP-62 = tested on: HOP-62
OVCAR-4 = tested on: OVCAR-4
LOX IMVI = tested on: LOX IMVI
NCI-H522 = tested on: NCI-H522
BT-549 = tested on: BT-549
OVCAR-5 = tested on: OVCAR-5
SF-268 = tested on: SF-268
HT-29 = tested on: HT-29
MCF7 = tested on: MCF7
A498 = tested on: A498
UO-31 = tested on: UO-31
NCI/ADR-RES = tested on: NCI/ADR-RES
CCRF-CEM = tested on: CCRF-CEM
786-0 = tested on: 786-0
HCT-15 = tested on: HCT-15
MDA-N = tested on: MDA-N
CAKI-1 = tested on: CAKI-1
TK-10 = tested on: TK-10
U-251 = tested on: U-251
OVCAR-3 = tested on: OVCAR-3
OVCAR-8 = tested on: OVCAR-8
ACHN = tested on: ACHN
KM12 = tested on: KM12
NCI-H226 = tested on: NCI-H226
DU-145 = tested on: DU-145
A549 = tested on: A549
Malme-3M = tested on: Malme-3M
MOLT-4 = tested on: MOLT-4
SF-539 = tested on: SF-539
RPMI-8226 = tested on: RPMI-8226
SK-MEL-5 = tested on: SK-MEL-5
Hs-578T = tested on: Hs-578T
HL-60 = tested on: HL-60
UACC-257 = tested on: UACC-257
M14 = tested on: M14
HOP-92 = tested on: HOP-92
UACC-62 = tested on: UACC-62
HCC 2998 = tested on: HCC 2998
NCI-H460 = tested on: NCI-H460

`Cc1csc(NCc2ccc(Cl)cc2)n1` was tested, and the GI50 (EKVX) was 32.7 µM (inactive), the GI50 (SW-620) was 69.7 µM (inactive) and the GI50 (HCT-116) was 38.6 µM (inactive). For the same compound, the GI50 (SK-MEL-28) was 85.1 µM (inactive), the GI50 (SNB-75) was 36.3 µM (inactive) and the GI50 (RXF 393) was 25.4 µM (inactive). The GI50 (SK-OV-3) was > 100 µM (inactive), the GI50 (SK-MEL-2) was 50.9 µM (inactive) and the GI50 (K562) was 45.7 µM (inactive). For the same compound, the GI50 (PC-3) was 37.8 µM (inactive), the GI50 (SF-295) was 39.8 µM (inactive) and the GI50 (MDA-MB-435) was 52.2 µM (inactive). For the same compound, the GI50 (SR) was 36.1 µM (inactive), the GI50 (SN12C) was 81.5 µM (inactive) and the GI50 (SNB-19) was 75.2 µM (inactive). The GI50 (NCI-H23) was 32.3 µM (inactive), the GI50 (MDA-MB-231) was 40.6 µM (inactive) and the GI50 (IGROV-1) was 45.9 µM (inactive). For the same compound, the GI50 (T47D) was 28.9 µM (inactive), the GI50 (COLO 205) was 24.1 µM (inactive) and the GI50 (HOP-62) was > 100 µM (inactive). The GI50 (OVCAR-4) was 37 µM (inactive), the GI50 (LOX IMVI) was 99.3 µM (inactive) and the GI50 (NCI-H522) was 28.9 µM (inactive). For the same compound, the GI50 (BT-549) was 62.7 µM (inactive), the GI50 (OVCAR-5) was > 100 µM (inactive) and the GI50 (SF-268) was 51.2 µM (inactive). The GI50 (HT-29) was 47.1 µM (inactive), the GI50 (MCF7) was 43.3 µM (inactive) and the GI50 (A498) was 40.1 µM (inactive). The GI50 (UO-31) was 37.4 µM (inactive), the GI50 (NCI/ADR-RES) was 46.6 µM (inactive) and the GI50 (CCRF-CEM) was 39.1 µM (inactive). For the same compound, the GI50 (786-0) was 61.4 µM (inactive), the GI50 (HCT-15) was 39.1 µM and the GI50 (MDA-N) was 57.7 µM (inactive). The GI50 (CAKI-1) was 60.5 µM (inactive), the GI50 (TK-10) was > 100 µM (inactive) and the GI50 (U-251) was 41.3 µM (inactive). For the same compound, the GI50 (OVCAR-3) was 44.7 µM (inactive), the GI50 (OVCAR-8) was 56.2 µM (inactive) and the GI50 (ACHN) was 70.1 µM (inactive). The GI50 (KM12) was 56.1 µM (inactive), the GI50 (NCI-H226) was 33.8 µM (inactive) and the GI50 (DU-145) was > 100 µM (inactive). The GI50 (A549) was 40.5 µM (inactive), the GI50 (Malme-3M) was 45.1 µM (inactive) and the GI50 (MOLT-4) was 35.9 µM (inactive). For the same compound, the GI50 (SF-539) was > 100 µM (inactive), the GI50 (RPMI-8226) was 44 µM (inactive) and the GI50 (SK-MEL-5) was 23.7 µM (inactive). The GI50 (Hs-578T) was 54.7 µM (inactive), the GI50 (HL-60) was 33.1 µM (inactive) and the GI50 (UACC-257) was 67.8 µM (inactive). For the same compound, the GI50 (M14) was 45.7 µM (inactive) and the GI50 (HOP-92) was 23.4 µM (inactive).

In the case of `CC(C)(C)OC(=O)NC12C3C4C1C1C2C3C41NC(=O)OC(C)(C)C` (configuration not stated), the GI50 (EKVX) is reported as 26.9 µM (inactive), the GI50 (SW-620) is reported as 62.8 µM (inactive) and the GI50 (HCT-116) is reported as 47.3 µM (inactive). For the same compound, the GI50 (SK-MEL-28) was 51.4 µM (inactive), the GI50 (RXF 393) was 28.5 µM (inactive) and the GI50 (SK-MEL-2) was > 100 µM (inactive). The GI50 (K562) was 50.4 µM (inactive), the GI50 (PC-3) was 61.2 µM (inactive) and the GI50 (SF-295) was 48.1 µM (inactive). For the same compound, the GI50 (MDA-MB-435) was 51.9 µM (inactive), the GI50 (SR) was 47.5 µM (inactive) and the GI50 (SN12C) was 88.5 µM (inactive). For the same compound, the GI50 (SNB-19) was > 100 µM (inactive), the GI50 (NCI-H23) was 57.4 µM (inactive) and the GI50 (MDA-MB-231) was 26 µM (inactive). For the same compound, the GI50 (IGROV-1) was > 100 µM (inactive), the GI50 (T47D) was 27.3 µM (inactive) and the GI50 (COLO 205) was > 100 µM (inactive). For the same compound, the GI50 (HOP-62) was 50.6 µM (inactive), the GI50 (OVCAR-4) was 35.4 µM (inactive) and the GI50 (LOX IMVI) was 36.1 µM (inactive). For the same compound, the GI50 (NCI-H522) was 63.2 µM (inactive), the GI50 (BT-549) was 42.6 µM (inactive) and the GI50 (OVCAR-5) was > 100 µM (inactive). The GI50 (SF-268) was 35.8 µM (inactive), the GI50 (HT-29) was 26.9 µM (inactive) and the GI50 (MCF7) was 29.6 µM (inactive). The GI50 (A498) was 50.5 µM (inactive), the GI50 (UO-31) was 39.4 µM (inactive) and the GI50 (NCI/ADR-RES) was 22.5 µM (inactive). The GI50 (CCRF-CEM) was 21.3 µM (inactive), the GI50 (786-0) was 43.1 µM (inactive) and the GI50 (HCT-15) was 73.3 µM. The GI50 (MDA-N) was 61.2 µM (inactive), the GI50 (CAKI-1) was > 100 µM (inactive) and the GI50 (TK-10) was > 100 µM (inactive). The GI50 (U-251) was 37.8 µM (inactive), the GI50 (OVCAR-3) was 79.3 µM (inactive) and the GI50 (UACC-62) was 54.3 µM (inactive). For the same compound, the GI50 (OVCAR-8) was 30.5 µM (inactive), the GI50 (ACHN) was > 100 µM (inactive) and the GI50 (KM12) was 15.8 µM (inactive). For the same compound, the GI50 (HCC 2998) was > 100 µM (inactive), the GI50 (DU-145) was 68.4 µM (inactive) and the GI50 (A549) was 71.9 µM (inactive). For the same compound, the GI50 (MOLT-4) was 15.2 µM (inactive), the GI50 (SF-539) was 31 µM (inactive) and the GI50 (SK-MEL-5) was 26.5 µM (inactive). The GI50 (Hs-578T) was 23.7 µM (inactive), the GI50 (HL-60) was 19.7 µM (inactive) and the GI50 (NCI-H460) was 35.6 µM (inactive). The GI50 (UACC-257) was 39.4 µM (inactive), the GI50 (M14) was 50 µM (inactive) and the GI50 (HOP-92) was 68.1 µM (inactive).

With `Nc1ccccc1/N=C/c1cc2cc([N+](=O)[O-])ccc2s1` the GI50 (EKVX) was 18.6 µM (inactive), the GI50 (SW-620) was 29.5 µM (inactive) and the GI50 (HCT-116) was 24.9 µM (inactive). For the same compound, the GI50 (SK-MEL-28) was 22 µM (inactive), the GI50 (SNB-75) was 14.4 µM (inactive) and the GI50 (RXF 393) was 14.5 µM (inactive). The GI50 (SK-OV-3) was 13.9 µM (inactive), the GI50 (SK-MEL-2) was 12.7 µM (inactive) and the GI50 (K562) was 12.7 µM (inactive). For the same compound, the GI50 (PC-3) was 14.2 µM (inactive), the GI50 (SF-295) was 21.9 µM (inactive) and the GI50 (MDA-MB-435) was 31.4 µM (inactive). For the same compound, the GI50 (SR) was 11 µM (inactive), the GI50 (SN12C) was 23.8 µM (inactive) and the GI50 (SNB-19) was 14.1 µM (inactive). For the same compound, the GI50 (NCI-H23) was 33 µM (inactive), the GI50 (MDA-MB-231) was 16.3 µM (inactive) and the GI50 (IGROV-1) was 7.59 µM (inactive). The GI50 (T47D) was 4.13 µM (inactive), the GI50 (COLO 205) was 17.8 µM (inactive) and the GI50 (HOP-62) was 16.8 µM (inactive). The GI50 (LOX IMVI) was 13.9 µM (inactive), the GI50 (NCI-H522) was 15.1 µM (inactive) and the GI50 (BT-549) was 12.5 µM (inactive). The GI50 (OVCAR-5) was 32.7 µM (inactive), the GI50 (SF-268) was 14.6 µM (inactive) and the GI50 (HT-29) was 25.8 µM (inactive). The GI50 (MCF7) was 5.27 µM (inactive), the GI50 (A498) was 10.4 µM (inactive) and the GI50 (UO-31) was 15.7 µM (inactive). For the same compound, the GI50 (NCI/ADR-RES) was 32.1 µM (inactive), the GI50 (CCRF-CEM) was 5.01 µM (inactive) and the GI50 (786-0) was 14.5 µM (inactive). The GI50 (HCT-15) was 43.3 µM, the GI50 (MDA-N) was 37.8 µM (inactive) and the GI50 (CAKI-1) was 15.5 µM (inactive). The GI50 (TK-10) was 15.2 µM (inactive), the GI50 (U-251) was 14.5 µM (inactive) and the GI50 (OVCAR-3) was 14 µM (inactive). For the same compound, the GI50 (UACC-62) was 12.6 µM (inactive), the GI50 (OVCAR-8) was 15 µM (inactive) and the GI50 (ACHN) was 11.6 µM (inactive). The GI50 (KM12) was 10 µM (inactive), the GI50 (HCC 2998) was 19.3 µM (inactive) and the GI50 (DU-145) was 12.6 µM (inactive). For the same compound, the GI50 (A549) was 8.47 µM (inactive), the GI50 (Malme-3M) was 26.6 µM (inactive) and the GI50 (MOLT-4) was 3.08 µM (inactive). For the same compound, the GI50 (SF-539) was 12.1 µM (inactive), the GI50 (RPMI-8226) was 5.52 µM (inactive) and the GI50 (SK-MEL-5) was 21.4 µM (inactive). For the same compound, the GI50 (Hs-578T) was 15.1 µM (inactive), the GI50 (HL-60) was 7.43 µM (inactive) and the GI50 (NCI-H460) was 5.58 µM (inactive). The GI50 (UACC-257) was 19.5 µM (inactive), the GI50 (M14) was 22.4 µM (inactive) and the GI50 (HOP-92) was 18.9 µM (inactive).
